# Like-named read-outs stand apart in the source and are kept apart here.
# How the values were obtained:
# [1] = tested on: Methicillin-resistant Staphylococcus aureus (MRSA) isolates; test: MIC by broth microdilution (CLSI) against CAN-ICU MRSA isolates; type: cell-based; settings: Staphylococcus aureus
# From the text: MRSA isolates (n=193) were obtained as part of the Canadian National Intensive Care Unit (CAN-ICU) Study. 19 medical centers from all regions of Canada with active ICUs participated in the CAN-ICU study included. They were requested to only obtain “clinically significant” specimens from patients with a presumed infectious disease. Surveillance swabs, eye, ear, nose and throat swabs were excluded. Anaerobic organisms and fungal organisms were also excluded.
# From September 2005-June 2006 (inclusive), each center collected a maximum of 300 consecutive pathogens isolated from blood, urine, tissue/wound, and respiratory specimens (one pathogen per cultured site per patient) of ICU patients. These isolates were shipped to the reference laboratory (Health Sciences Centre, Winnipeg, Canada) on Amies charcoal swabs, subcultured in appropriate media, and stocked in skim milk at −80° C.
# All isolates underwent mecA PCR, as well as molecular characterization (including PVL analysis and fingerprinting), as previously described, to assess whether they were community-associated or healthcare-associated (Christianson et al., J Clin Microbiol. 2007, 45 (6): 1904-11; Mulvey et al., J Clin. Microbiol. 2001, 39(10): 3481-5; Mulvey et al., Emerg Infect Dis. 2005,11(6): 844-50; Oliveira et al., Antimicrob Agents Chemother. 2002, 46(7): 2155-61). The isolates were also subtyped using pulsed-field gel electrophoresis (PFGE) following the Canadian standardized protocol as previously described (Mulvey et al., J Clin Microbiol. 2001, 39(10): 3481-5). Their PFGE fingerprints thus obtained were analyzed with BioNumerics v3.5 (Applied Maths St. Marten-Latem, Belgium) using a position tolerance of 1.0 and an optimization of 1.0. Strain relatedness was determined as previously described (Tenover et al., 1995). The fingerprints of the isolates were compared to the national MRSA fingerprint database and were grouped into one of 10 Canadian epidemic MRSA (CMRSA-1, CMRSA-2, etc) as previously described (Mulvey et al., Emerg Infect Dis. 2005,11(6):844-50).
# Compound 1 and other antibiotics were tested for their inhibitory activity against the MRSA isolates using the broth microdilution guidelines as stipulated by the Clinical and Laboratory Standards Institute.
# [2] = tested on: Staphylococcus aureus strains (MRSA, hVISA, VISA, VRSA, quinolone-resistant MRSA); test: MIC by agar dilution against Staphylococcal strains (MRSA, hVISA, VISA, VRSA, quinolone-resistant MRSA); type: cell-based
# Experimental: Compound 1 was tested for its inhibitory effect against 26 Methicillin-resistant Staphylococcus aureus (MRSA) strains, 2 hetero-Vancomycin intermediate Staphylococcus aureus (hVISA) strains, 24 Vancomycin-intermediate Staphylococcus aureus (VISA) strains, 5 Vancomycin-resistant Staphylococcus aureus (VRSA) strains, and 31 quinolone-resistant Vancomycin-susceptibale MRSA strains with defined mutations in QRDR. These mutations were determined by sequencing analysis of the QRDR (gyrA, gyrB, grlA, and grlB). Efflux testing was performed by the reserpine method (Brenwald, et al., Antimicrob. Agents Chemother. 1998, 42: 2032-2035).
# H. pylori isolates = test: MIC by agar dilution against 200 H. pylori isolates (Taiwan); type: cell-based, Helicobacter pylori; settings: for share of isolates resistant: 200 H. pylori isolates, resistance: amoxicillin MICs≧0.5, clarithromycin ≧1, metronidazole ≧8, ciprofloxacin ≧1, levofloxacin ≧1 μg/mL; for MIC50 / MIC90: Helicobacter pylori, 200 isolates of H. pylori
# Experimental: MICs were determined using the agar dilution methods recommended by the Clinical and Laboratory Standards Institute (CLSI-M100-S18).
# [3] = Staphylococcus aureus, MRSA (26)
# [4] = Staphylococcus aureus, Quinolone-resistant MRSA (31)
# [5] = Staphylococcus aureus, hVISA(2) + VISA (24) + VRSA (5)
# [6] = Staphylococcus aureus, read-out: MIC Range, MRSA (26)
# [7] = Staphylococcus aureus, read-out: MIC Range, Quinolone-resistant MRSA (31)
# [8] = Staphylococcus aureus, read-out: MIC Range, hVISA(2) + VISA (24) + VRSA (5)
# [9] = MRSA (n = 193), read-out: MIC50
# [10] = MRSA (n = 193), read-out: MIC90
# [11] = MRSA (n = 193), read-out: MIC Range Max
# [12] = MRSA (n = 193), read-out: MIC Range Min
# [13] = hVISA(2) + VISA (24) + VRSA (5)
Compound,"MIC50 [2, 3] [µg/mL]","MIC90 [2, 3] [µg/mL]","MIC50 [2, 4] [µg/mL]","MIC90 [2, 4] [µg/mL]","MIC50 [2, 5] [µg/mL]","MIC90 [2, 5] [µg/mL]","MIC [2, 6] [µg/mL]","MIC [2, 7] [µg/mL]","MIC50 [1, 9] [µg/mL]","MIC90 [1, 10] [µg/mL]","MIC [1, 11] [µg/mL]","MIC [1, 12] [µg/mL]",other results
CN(C)c1cc(NC(=O)CNC(C)(C)C)c(O)c2c1C[C@H]1C[C@H]3[C@H](N(C)C)C(O)=C(C(N)=O)C(=O)[C@@]3(O)C(O)=C1C2=O [Tigecycline],0.25,0.5,0.12,0.25,0.25,0.5,0.12 to 0.5,0.12 to 0.5,,,,,"MIC50 ([1]; MRSA): 0.25 µg/mL; MIC90 ([1]; MRSA): 0.5 µg/mL; MIC50 ([1]; MRSA / USA100): 0.25 µg/mL; MIC90 ([1]; MRSA / USA100): 0.25 µg/mL; MIC50 ([1]; MRSA / USA200): 0.5 µg/mL; MIC90 ([1]; MRSA / USA200): 0.5 µg/mL; MIC50 ([1]; MRSA / USA300): 0.25 µg/mL; MIC90 ([1]; MRSA / USA300): 0.5 µg/mL; MIC50 ([1]; MRSA / USA400): 0.25 µg/mL; MIC90 ([1]; MRSA / USA400): 0.25 µg/mL; MIC50 ([1]; MRSA / USA600): 0.25 µg/mL; MIC90 ([1]; MRSA / USA600): 0.5 µg/mL; MIC ([1]; MRSA, read-out: MIC Range Max): 0.5 µg/mL; MIC ([1]; MRSA, read-out: MIC Range Min): 0.12 µg/mL; MIC [2, 8]: 0.06 to 0.5 µg/mL"
CC(=O)NC[C@H]1CN(c2ccc(N3CCOCC3)c(F)c2)C(=O)O1 [Linezolid],4,4,1,1,1,1,2 to 4,0.25 to 1,2,2,4,0.5,"MIC50 ([1]; MRSA / USA100, USA 100/800 (HA-MRSA), read-out: MIC50): 2 µg/mL; MIC90 ([1]; MRSA / USA100, USA 100/800 (HA-MRSA), read-out: MIC90): 2 µg/mL; MIC50 ([1]; MRSA / USA200, USA 200 (HA-MRSA), read-out: MIC50): 2 µg/mL; MIC90 ([1]; MRSA / USA200, USA 200 (HA-MRSA), read-out: MIC90): 2 µg/mL; MIC50 ([1]; MRSA / USA300, USA 300 (CA-MRSA), read-out: MIC50): 1 µg/mL; MIC90 ([1]; MRSA / USA300, USA 300 (CA-MRSA), read-out: MIC90): 2 µg/mL; MIC50 ([1]; MRSA / USA400, USA 400 (CA-MRSA), read-out: MIC50): 2 µg/mL; MIC90 ([1]; MRSA / USA400, USA 400 (CA-MRSA), read-out: MIC90): 2 µg/mL; MIC50 ([1]; MRSA / USA600, USA 600 (HA-MRSA), read-out: MIC50): 2 µg/mL; MIC90 ([1]; MRSA / USA600, USA 600 (HA-MRSA), read-out: MIC90): 2 µg/mL; MIC [2, 8]: 0.5 to 2 µg/mL"
CC1(C)S[C@@H]2[C@H](NC(=O)[C@H](N)c3ccc(O)cc3)C(=O)N2[C@H]1C(=O)O [amoxicillin],,,,,,,,,,,,,share of isolates resistant (H. pylori isolates): 2%
Teicoplanin,,,,,,,,,,,,,"MIC50 ([2]; MRSA (26)): 0.5 µg/mL; MIC90 ([2]; MRSA (26)): 1 µg/mL; MIC Range ([2]; MRSA (26)): 0.5 to 1 µg/mL; MIC50 ([2]; Quinolone-resistant MRSA (31)): 0.5 µg/mL; MIC90 ([2]; Quinolone-resistant MRSA (31)): 1 µg/mL; MIC Range ([2]; Quinolone-resistant MRSA (31)): 0.25 to 2 µg/mL; MIC50 [2, 13]: 8 µg/mL; MIC90 [2, 13]: 16 µg/mL; MIC Range [2, 13]: 1 to 32 µg/mL"
CN[C@H](CC(C)C)C(=O)N[C@H]1C(=O)N[C@@H](CC(N)=O)C(=O)N[C@H]2C(=O)N[C@H]3C(=O)N[C@H](C(=O)N[C@H](C(=O)O)c4cc(O)cc(O)c4-c4cc3ccc4O)[C@H](O)c3ccc(c(Cl)c3)Oc3cc2cc(c3O[C@@H]2O[C@H](CO)[C@@H](O)[C@H](O)[C@H]2O[C@H]2C[C@](C)(N)[C@H](O)[C@H](C)O2)Oc2ccc(cc2Cl)[C@H]1O [Vancomycin],1,1,1,1,4,32,0.5 to 1,0.5 to 2,,,,,"MIC50 ([1]; MRSA): 1 µg/mL; MIC90 ([1]; MRSA): 1 µg/mL; MIC50 ([1]; MRSA / USA100): 1 µg/mL; MIC90 ([1]; MRSA / USA100): 1 µg/mL; MIC50 ([1]; MRSA / USA200): 0.5 µg/mL; MIC90 ([1]; MRSA / USA200): 0.5 µg/mL; MIC50 ([1]; MRSA / USA300): 0.5 µg/mL; MIC90 ([1]; MRSA / USA300): 0.5 µg/mL; MIC50 ([1]; MRSA / USA400): 1 µg/mL; MIC90 ([1]; MRSA / USA400): 1 µg/mL; MIC50 ([1]; MRSA / USA600): 1 µg/mL; MIC90 ([1]; MRSA / USA600): 1 µg/mL; MIC ([1]; MRSA, read-out: MIC Range Max): 1 µg/mL; MIC ([1]; MRSA, read-out: MIC Range Min): 0.5 µg/mL"
C[C@@H](O)[C@H]1C(=O)N2C(C(=O)O)=C(S[C@@H]3CN[C@H](C(=O)N(C)C)C3)[C@H](C)[C@H]12 [Meropenem],,,,,,,,,16,> 32,> 32,0.25,
Cc1ncc([N+](=O)[O-])n1CCO [metronidazole],,,,,,,,,,,,,share of isolates resistant (H. pylori isolates): 29%
CCC[C@@H]1C[C@@H](C(=O)N[C@@H]([C@H]2O[C@H](SC)[C@H](O)[C@@H](O)[C@H]2O)[C@H](C)Cl)N(C)C1 [Clindamycin],,,,,,,,,> 8,> 8,> 8,≤ 0.12,
CO/N=C1\CN(c2nc3c(cc2F)c(=O)c(C(=O)O)cn3C2CC2)CC1CN (stereo not drawn) [Gemifloxacin],,,,,,,,,,,,,MIC50 (H. pylori isolates): 60 µg/mL; MIC90 (H. pylori isolates): 120 µg/mL
CCCCCCCCCC(=O)N[C@@H](Cc1c[nH]c2ccccc12)C(=O)N[C@H](CC(N)=O)C(=O)N[C@@H](CC(=O)O)C(=O)N[C@@H]1C(=O)NCC(=O)N[C@@H](CCCN)C(=O)N[C@@H](CC(=O)O)C(=O)N[C@H](C)C(=O)N[C@@H](CC(=O)O)C(=O)NCC(=O)N[C@H](CO)C(=O)N[C@@H]([C@H](C)CC(=O)O)C(=O)N[C@@H](CC(=O)c2ccccc2N)C(=O)O[C@@H]1C [Daptomycin],1,1,0.25,0.25,1,2,0.5 to 1,0.12 to 1,0.25,0.5,0.5,0.25,"MIC [2, 8]: 0.12 to 4 µg/mL"
Cc1nnc(SCC2=C(C(=O)O)N3C(=O)[C@@H](NC(=O)Cn4cnnn4)[C@H]3SC2)s1 [Cefazolin],,,,,,,,,128,> 128,> 128,2,
CO/N=C(\C(=O)N[C@@H]1C(=O)N2C(C(=O)O)=C(CSc3nc(=O)c(=O)[nH]n3C)CS[C@H]12)c1csc(N)n1 [Ceftriaxone],,,,,,,,,> 64,> 64,> 64,8,
COc1c(N2C[C@@H]3CCCN[C@@H]3C2)c(F)cc2c(=O)c(C(=O)O)cn(C3CC3)c12 [Moxifloxacin],0.06,0.06,4,8,4,8,0.03 to 0.25,1 to 8,,,,,"MIC50 (H. pylori isolates): 250 µg/mL; MIC90 (H. pylori isolates): 500 µg/mL; MIC [2, 8]: 0.06 to 8 µg/mL"
CC[C@H]1OC(=O)[C@H](C)[C@@H](O[C@H]2C[C@@](C)(OC)[C@@H](O)[C@H](C)O2)[C@H](C)[C@@H](O[C@@H]2O[C@H](C)C[C@H](N(C)C)[C@H]2O)[C@](C)(OC)C[C@@H](C)C(=O)[C@H](C)[C@@H](O)[C@]1(C)O [Clarithromycin],,,,,,,,,> 32,> 32,> 32,0.25,share of isolates resistant (H. pylori isolates): 6%
